# Laboratory results from US20060110401A1, “Mixture of peptides from c and ns3 proteins of the hepatitis c virus and applications thereof” (priority 2002, published 2006).
# Where two headings read alike, the source gives them in different places. Residues, ends and D or L forms follow the SMILES beside them.
# Assays:
# DR15 [1] = test: DR15
# DRB3 = test: DRB3
# HLA-DRB3 (DRB3*0101) = target: T1, HLA-DRB3 (DRB3*0101) (Homo sapiens, UniProt P01903+P79483); test: HLA II/peptide binding assay, HLA-DRB3; details: read-out: binds with good affinity to DRB3
# T1 construct: endogenous in cells; host or cells: homozygous EBV-transformed human B lymphocyte lines; immunopurified with antibody L243
# HLA-DR15 (DRB1*1501) = target: T2, HLA-DR15 (DRB1*1501) (Homo sapiens, UniProt P01903+P01911); test: biochemical; format: binding; details: DRB1*1501; read-out: binds with good affinity to DR15
# T2 construct: endogenous in cells; host or cells: homozygous EBV-transformed human B lymphocyte lines; immunopurified with antibody L243
# DP401 [2] = test: DP401
# DR1 [3] = test: DR1
# DR7 [4] = test: DR7
# HLA-DR11 (DRB1*1101) = HLA-DR11 (DRB1*1101) (Homo sapiens, UniProt P01903+P01911, A100R/A169T/A87E/I96F/K41T/L162R/M171V/P40S/Q125H/Q178H/Q39Y/Q99D/R42S/S66Y/T262R/V115G/W38E); test: biochemical; format: binding; details: read-out: binds with good affinity to DR11
# Sequence of HLA-DR11 (DRB1*1101) (P01903 26-254 limits assumed, other chains not shown): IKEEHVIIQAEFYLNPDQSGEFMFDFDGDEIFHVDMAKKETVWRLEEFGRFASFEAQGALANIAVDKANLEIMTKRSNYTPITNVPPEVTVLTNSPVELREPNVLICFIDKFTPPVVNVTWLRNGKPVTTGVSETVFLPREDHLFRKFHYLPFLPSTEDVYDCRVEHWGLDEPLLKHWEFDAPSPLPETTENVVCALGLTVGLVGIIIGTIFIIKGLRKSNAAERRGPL
# HLA-DP401 (DPB1*0401) = HLA-DP401 (DPB1*0401) (Homo sapiens, UniProt P04440+P20036); test: biochemical; format: binding; details: DP*0401; read-out: binds with good affinity to DP401
# HLA-DR4 (DRB1*0401) = target: T3, HLA-DR4 (DRB1*0401) (Homo sapiens, UniProt P01903+P01911, A100K/A169T/F76Y/I96L/K127E/L162R/M171V/N62H/P40V/Q125Y/R42H/S133A/S149N/S66Y/V115G/V209L/W38E); test: biochemical; format: binding; details: read-out: binds with good affinity to DR4
# T3 construct: endogenous in cells; host or cells: homozygous EBV-transformed human B lymphocyte lines; immunopurified with antibody L243
# DRB5 [5] = test: DRB5
# DR4 [6] = test: DR4
# DR13 = test: DR13
# Text: (§1) Table printed on a drawing sheet, Figure 2
# Where the first naming reader finds the target: head: DR13
# HLA-DR7 (DRB1*0701) = HLA-DR7 (DRB1*0701) (Homo sapiens, UniProt P01903+P01911, A100R/A102G/A103Q/D57E/D86V/E43K/F76Y/K127E/L162R/M171V/P40G/Q125H/Q99D/R33Q/R42Y/R54Q/S133A/S66F/T210M/V115G/Y107V/Y59L/Y89S); test: biochemical; format: binding; details: read-out: binds with good affinity to DR7
# HLA-DR1 (DRB1*0101) = target: T4, HLA-DR1 (DRB1*0101) (Homo sapiens, UniProt P01903+P01911, A100R/D57E/F55L/F60I/F76Y/I96L/L162R/M171V/P40L/Q125E/R42F/V115G/Y59C); test: biochemical; format: binding; details: for IC50: DRB1*0101
# T4 construct: endogenous in cells; host or cells: homozygous EBV-transformed human B lymphocyte lines; immunopurified with antibody L243
# DR3 = test: DR3
# Text: as §1
# Where the first naming reader finds the target: head: DR3
# DP402 = test: DP402
# DRB4 = test: DRB4
# Text: as §1
# Where the first naming reader finds the target: head: DRB4
# DP401 [7] = test: DP401; remark: listed apart in the source
# Text: (§2) Table printed on a drawing sheet, Figure 3
# (§3) The patent's description of the figure: FIG. 3 illustrates the binding activity, with respect to the HLA II molecules that are predominant in the Caucasian population, of a second series of peptides of the C and NS3 proteins, derived from the first series. The values correspond to the IC50 values, expressed in nM.
# (§4) First copying reader's note: The sheet prints no unit; blank spacer lines between peptide groups are left out, and the Nb head is printed slightly left of its column.; the cell N1056-1070 / DR15 is printed empty.; the cell N1056-1070 / DR15 is printed empty.
# Where the first naming reader finds the target: head: DP401
# DR11 [8] = test: DR11
# Text: as §2, §3, §4
# (§5) Where the first naming reader finds the target: head: DR11
# DRB5 [9] = test: DRB5; remark: listed apart in the source
# Text: as §2, §3, §4
# Where the first naming reader finds the target: head: DRB5
# DR15 [10] = test: DR15; remark: listed apart in the source
# Text: as §2, §3, §4
# Where the first naming reader finds the target: head: DR15
# DR4 [11] = test: DR4; remark: listed apart in the source
# Text: as §2, §3, §4
# Where the first naming reader finds the target: head: DR4
# DR7 [12] = test: DR7; remark: listed apart in the source
# Text: as §2, §3, §4
# Where the first naming reader finds the target: head: DR7
# DR1 [13] = test: DR1; remark: listed apart in the source
# Text: as §2, §3, §4
# Where the first naming reader finds the target: head: DR1
# DR11 [14] = test: DR11; remark: listed apart in the source
# Text: as §1, §5
# [15] = test system: splenocytes from mice transgenic for the human HLA-DR1 molecules; test: Proliferation assay with splenocytes of immunized HLA-DR1 transgenic mice; format: in vivo; details: 25 μg of single peptide in montanide, subcutaneous, two injections; restimulation 5 μg/ml; FIG. 4A
# Procedure: The ability of the peptides having good affinity for the HLA II molecules, as defined above, to induce an immune response was evaluated by means of an in vitro proliferation assay in mice transgenic for HLA-DR1 molecules (Wilkinson et al., Infect. Immunity, 1999, 67, 1501-; Rosloniec et al., J. Exp. Med., 1997, 185, 1113-), pre-immunized with these peptides.
# 15 days later, a second injection was given under the same conditions. Ten days after the second injection, the animals were sacrificed and their spleen was removed. The splenocytes were cultured in HL-1 medium (Biowhittaker) supplemented with 1% of mouse serum, in the presence of 5 μg/ml of each of the peptides used for the injection, or in the absence of peptide. After 4 days of culture, 1 μCi of tritiated thymidine (Amersham, Life Technologies) was added for 16 h. The tritiated thymidine incorporation was then measured using a beta-counter (Microbeta 1450, Perkin Elmer). The results are expressed as a proliferation index (number of CPM in the presence of peptide/number of CPM in the absence of peptide).
compound,measurement,setting,value
CC[C@H](C)[C@H](NC(=O)[C@H](CC(N)=O)NC(=O)[C@@H]1CCCN1C(=O)[C@@H](N)CC(=O)O)C(=O)N[C@@H](CCCNC(=N)N)C(=O)N[C@H](C(=O)NCC(=O)N[C@H](C(=O)N[C@@H](CCCNC(=N)N)C(=O)N[C@H](C(=O)N[C@H](C(=O)N[C@H](C(=O)N[C@H](C(=O)NCC(=O)N[C@@H](CO)C(=O)N1CCC[C@H]1C(=O)N[C@H](C(=O)N[C@H](C(=O)N[C@@H](Cc1ccc(O)cc1)C(=O)N[C@@H](CO)C(=O)N[C@H](C(=O)N[C@@H](Cc1ccc(O)cc1)C(=O)NCC(=O)N[C@@H](CCCCN)C(=O)N[C@@H](Cc1ccccc1)C(=O)N[C@@H](CC(C)C)C(=O)N[C@@H](C)C(=O)N[C@@H](CC(=O)O)C(=O)NCC(=O)NCC(=O)O)[C@@H](C)O)[C@@H](C)O)[C@@H](C)CC)[C@@H](C)O)[C@@H](C)O)[C@@H](C)O)[C@@H](C)O)C(C)C)[C@@H](C)O [19N 1275-1304] (H-DPNIRTGVRTTTTGSPITYSTYGKFLADGG-OH; N-terminus and C-terminus assumed),IC50,DR15 [1],0.55 µM
same,IC50,DRB3,0.15 µM
same,IC50,HLA-DRB3 (DRB3*0101),< 1 µM
same,IC50,HLA-DR15 (DRB1*1501),< 1 µM
same,IC50,DP401 [2],0.548 µM
same,IC50,DR1 [3],0.15 µM
same,IC50,DR7 [4],0.113 µM
same,IC50,HLA-DR11 (DRB1*1101),< 1 µM
same,IC50,HLA-DP401 (DPB1*0401),< 1 µM
same,IC50,HLA-DR4 (DRB1*0401),< 1 µM
same,IC50,DRB5 [5],1.3 µM
same,IC50,DR4 [6],0.5 µM
same,IC50,DR13,> 100 µM
same,IC50,HLA-DR7 (DRB1*0701),< 1 µM
same,IC50,HLA-DR1 (DRB1*0101); read-out: binds with good affinity to DR1,< 1 µM
same,IC50,DR3,> 100 µM
same,IC50,DP402,1.82 µM
same,IC50,DRB4,3.5 µM
GAPLGGAARALAHG [C 141-155],IC50,DP401 [7],9.49 µM
same,IC50,DR11 [8],0.49 µM
same,IC50,DRB5 [9],8.33 µM
same,IC50,DR15 [10],50 µM
same,IC50,DR4 [11],80 µM
same,IC50,DR7 [12],11.8 µM
same,IC50,DR1 [13],3.5 µM
CC(C)C[C@H](NC(=O)[C@H](C)NC(=O)[C@H](CCCNC(=N)N)NC(=O)[C@H](C)N)C(=O)N[C@@H](C)C(=O)N[C@@H](Cc1c[nH]cn1)C(=O)NCC(=O)N[C@H](C(=O)N[C@@H](CCCNC(=N)N)C(=O)N[C@H](C(=O)N[C@@H](CC(C)C)C(=O)N[C@@H](CCC(=O)O)C(=O)N[C@@H](CC(=O)O)C(=O)NCC(=O)N[C@H](C(=O)N[C@@H](CC(N)=O)C(=O)N[C@@H](Cc1ccc(O)cc1)C(=O)N[C@@H](C)C(=O)N[C@H](C(=O)NCC(=O)N[C@@H](CC(N)=O)C(=O)N[C@@H](CC(C)C)C(=O)N1CCC[C@H]1C(=O)NCC(=O)N[C@@H](C)C(=O)N[C@@H](CO)C(=O)O)[C@@H](C)O)C(C)C)C(C)C)C(C)C [6C 148-173] (H-ARALAHGVRVLEDGVNYATGNLPGAS-OH; N-terminus and C-terminus assumed),IC50,DR15 [1],6.67 µM
same,IC50,DRB3,4.83 µM
same,IC50,DR11 [14],4.33 µM
same,IC50,DR7 [4],3.17 µM
same,IC50,DRB5 [5],4.33 µM
same,IC50,DR4 [6],0.03 µM
same,IC50,DR13,9.5 µM
same,immune response (splenocyte proliferation index),[15],do not induce any effect
same,IC50,"HLA-DR1 (DRB1*0101); competition with biotinylated tracer HA 306-318, read-out: IC50, binding to HLA-DR1",10 µM
same,affinity for HLA-DR1 (in words),HLA-DR1 (DRB1*0101); legend of FIG. 4,low affinity
same,IC50,DR3,3.5 µM
same,IC50,DRB4,27.5 µM
